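Cultured in 96-well plates, cells were exposed to test compound for 48 hours across five concentrations. The concentration for 50% growth inhibition is given as GI50.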 The source made the active and inactive calls. Cut-off read from the data, not from the text of the source: active = GI50 up to about 1.1 µM and inactive = higher.
How the values were obtained:
Test in all cases: NCI tumour cell line growth inhibition, 48 h
OVCAR-3 = test system: OVCAR-3
TK-10 = test system: TK-10
NCI-H460 = test system: NCI-H460
K562 = test system: K562
SF-268 = test system: SF-268
CCRF-CEM = test system: CCRF-CEM
HL-60 = test system: HL-60
HCT-116 = test system: HCT-116
HCC 2998 = test system: HCC 2998
ACHN = test system: ACHN
SK-MEL-28 = test system: SK-MEL-28
Malme-3M = test system: Malme-3M
NCI-H522 = test system: NCI-H522
UO-31 = test system: UO-31
LOX IMVI = test system: LOX IMVI
UACC-257 = test system: UACC-257
A549 = test system: A549
IGROV-1 = test system: IGROV-1
OVCAR-8 = test system: OVCAR-8
HOP-92 = test system: HOP-92

Measured: GI50

Cc1cc(NS(=O)(=O)c2ccc(NC(=O)c3cccc4c(Nc5ccc(S(N)(=O)=O)cc5)c5ccccc5nc34)cc2)no1
inactive: OVCAR-3 76.2 µM | TK-10 > 100 µM | NCI-H460 > 100 µM | K562 98.2 µM | SF-268 > 100 µM | CCRF-CEM 85.9 µM | HL-60 > 100 µM | HCT-116 > 100 µM | HCC 2998 > 100 µM | ACHN > 100 µM | SK-MEL-28 > 100 µM | Malme-3M > 100 µM | NCI-H522 41.6 µM | UO-31 35.6 µM | LOX IMVI 70.3 µM | UACC-257 > 100 µM

Cc1ccc(NC(=O)c2cccc([N+](=O)[O-])c2O)c(C)c1
inactive: OVCAR-3 5.7 µM | NCI-H460 26.4 µM | K562 21 µM | A549 15.9 µM | SF-268 34.8 µM | CCRF-CEM 17.9 µM | HL-60 17.2 µM | HCT-116 28.6 µM | HCC 2998 40.4 µM | ACHN 16.8 µM | SK-MEL-28 6.97 µM | Malme-3M 1.7 µM | IGROV-1 9.84 µM | NCI-H522 7.06 µM | OVCAR-8 22.9 µM | UO-31 3.31 µM | LOX IMVI 11.9 µM | UACC-257 14 µM

CSc1nc(N)c2c(-c3ccccc3)c3c(nc2n1)CCCC3
inactive: OVCAR-3 > 100 µM | TK-10 > 100 µM | NCI-H460 > 100 µM | K562 > 100 µM | A549 > 100 µM | SF-268 > 10 µM | CCRF-CEM > 100 µM | HL-60 > 100 µM | HCT-116 > 100 µM | ACHN > 100 µM | SK-MEL-28 > 100 µM | Malme-3M 82 µM | IGROV-1 > 100 µM | OVCAR-8 20.8 µM | UO-31 3.38 µM | LOX IMVI > 100 µM | UACC-257 > 100 µM

COc1cc([N+](=O)[O-])ccc1NC(=O)c1cccc([N+](=O)[O-])c1O
inactive: OVCAR-3 29.4 µM | NCI-H460 27.7 µM | K562 20.8 µM | A549 21.8 µM | SF-268 32.5 µM | CCRF-CEM 23.2 µM | HL-60 19.9 µM | HCT-116 26.4 µM | HCC 2998 19 µM | ACHN 12.6 µM | SK-MEL-28 21.6 µM | Malme-3M 7.67 µM | IGROV-1 14.1 µM | NCI-H522 11.6 µM | OVCAR-8 29 µM | UO-31 16.2 µM | LOX IMVI 22.2 µM | UACC-257 17.8 µM

CC(C)(C)OC(=O)NCC(=O)NC1c2ccsc2/C(=N/O)[C@H]1O (stereo partly drawn)
inactive: OVCAR-3 > 100 µM | TK-10 > 100 µM | NCI-H460 > 100 µM | K562 5.28 µM | A549 > 100 µM | CCRF-CEM > 100 µM | HL-60 > 100 µM | HCT-116 > 100 µM | HCC 2998 93.3 µM | SK-MEL-28 > 100 µM | Malme-3M > 100 µM | IGROV-1 > 100 µM | HOP-92 7.36 µM | OVCAR-8 > 100 µM | UO-31 > 100 µM | LOX IMVI > 100 µM | UACC-257 > 100 µM

COc1cc2c(cc1OC)C(C1(O)CCCCC1)NCC2 (stereo not drawn)
inactive: OVCAR-3 > 100 µM | TK-10 > 100 µM | NCI-H460 > 100 µM | K562 > 100 µM | SF-268 > 100 µM | CCRF-CEM > 100 µM | HL-60 > 100 µM | HCT-116 > 100 µM | HCC 2998 > 100 µM | ACHN > 100 µM | SK-MEL-28 > 100 µM | Malme-3M > 100 µM | IGROV-1 > 100 µM | HOP-92 > 100 µM | OVCAR-8 > 100 µM | UO-31 > 100 µM | LOX IMVI > 100 µM | UACC-257 > 100 µM

O=C1c2ccccc2OCC12OC21C=CC(Cl)=CC1 (stereo not drawn)
inactive: OVCAR-3 20.5 µM | TK-10 33.2 µM | NCI-H460 20.3 µM | K562 16.6 µM | A549 18.6 µM | SF-268 35.5 µM | HL-60 15.7 µM | HCT-116 18.9 µM | HCC 2998 19.1 µM | ACHN 38.5 µM | SK-MEL-28 28.4 µM | Malme-3M 18.5 µM | IGROV-1 42.9 µM | HOP-92 36.1 µM | UO-31 29.6 µM | LOX IMVI 13.5 µM | UACC-257 32.2 µM

COCCOCOc1ccc(OCc2ccccc2)cc1
inactive: OVCAR-3 > 100 µM | NCI-H460 > 100 µM | K562 64.9 µM | A549 > 100 µM | SF-268 > 100 µM | CCRF-CEM 36.6 µM | HL-60 22.5 µM | HCT-116 > 100 µM | HCC 2998 > 82.6 µM | SK-MEL-28 > 100 µM | Malme-3M > 100 µM | IGROV-1 > 100 µM | HOP-92 > 100 µM | OVCAR-8 > 100 µM | UO-31 > 100 µM | LOX IMVI > 100 µM | UACC-257 > 69.7 µM

Source: ChEMBL document CHEMBL1201862, “PubChem BioAssay data set” (2004)
